Our source for the Ki values is patent US8691827B2, “Amino tetrahydro-pyridopyrimidine PDE10 inhibitors” (Merck Sharp & Dohme Corp., priority 2009, dated 2014).

Broadly, the Ki is the equilibrium dissociation constant of an inhibitor or competing ligand from its target.

Chain of human PDE10A2 (Q9Y233 267-1055): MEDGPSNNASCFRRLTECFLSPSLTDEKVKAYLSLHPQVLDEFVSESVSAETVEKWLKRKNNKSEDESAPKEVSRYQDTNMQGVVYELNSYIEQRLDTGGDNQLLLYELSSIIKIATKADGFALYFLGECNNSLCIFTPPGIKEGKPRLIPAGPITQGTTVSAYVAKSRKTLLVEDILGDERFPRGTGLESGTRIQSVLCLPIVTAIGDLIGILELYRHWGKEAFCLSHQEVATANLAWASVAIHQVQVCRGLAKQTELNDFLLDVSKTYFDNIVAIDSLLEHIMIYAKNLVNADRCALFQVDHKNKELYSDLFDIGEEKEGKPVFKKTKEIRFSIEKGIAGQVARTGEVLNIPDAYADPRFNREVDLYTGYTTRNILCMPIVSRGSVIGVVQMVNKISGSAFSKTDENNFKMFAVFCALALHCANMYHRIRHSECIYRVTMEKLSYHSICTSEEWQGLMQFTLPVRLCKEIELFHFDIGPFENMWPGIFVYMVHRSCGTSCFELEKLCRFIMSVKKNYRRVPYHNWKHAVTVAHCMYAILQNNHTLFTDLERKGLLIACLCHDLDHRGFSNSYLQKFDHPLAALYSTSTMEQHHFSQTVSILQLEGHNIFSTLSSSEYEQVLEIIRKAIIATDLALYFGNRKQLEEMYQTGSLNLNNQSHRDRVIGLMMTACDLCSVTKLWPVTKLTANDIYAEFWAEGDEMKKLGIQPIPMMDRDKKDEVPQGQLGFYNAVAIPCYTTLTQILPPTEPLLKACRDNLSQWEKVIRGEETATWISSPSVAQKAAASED

In this experiment the target is human PDE10A2 (Homo sapiens (Human), UniProt Q9Y233). Nature of the experiment: PDE10 fluorescence polarization (IMAP FP) inhibition assay. Format: biochemical. The note with it: FAM-labeled cAMP 50 nM, room temperature, read-out: PDE10A Ki. The procedure:
The activity of the compounds in accordance with the present invention as PDE10 inhibitors may be readily determined without undue experimentation using a fluorescence polarization (FP) methodology that is well known in the art (Huang, W., et al., J. Biomol Screen, 2002, 7: 215).
In a typical experiment the PDE10 inhibitory activity of the compounds of the present invention was determined in accordance with the following experimental method. PDE10A2 was amplified from human fetal brain cDNA (Clontech, Mountain View, Calif.) using a forward primer corresponding to nucleotides 56-77 of human PDE10A2 (Accession No. AF127480, Genbank Identifier 4894716), containing a Kozak consensus sequence, and a reverse primer corresponding to nucleotides 2406-2413 of human PDE10A2 (Accession No. AF127480, Genbank Identifier 4894716). Amplification with Easy-A polymerase (Stratagene, La Jolla, Calif.) was 95° C. for 2 minutes followed by thirty three cycles of 95° C. for 40 seconds, 55° C. for 30 seconds, and 72° C. for 2 minutes 48 seconds. Final extension was 72° C. for 7 minutes. The PCR product was TA cloned into pcDNA3.2-TOPO (Invitrogen, Carlsbad, Calif.) according to standard protocol. AD293 cells with 70-80% confluency were transiently transfected with human PDE10A2/pcDNA3.2-TOPO using Lipofectamine 2000 according to manufacturer specifications (Invitrogen, Carlsbad, Calif.). Cells were harvested 48 hours post-transfection and lysed by sonication (setting 3, 10×5 sec pulses) in a buffer containing 20 mM HEPES, 1 mM EDTA and protease inhibitor cocktail (Roche). Lysate was collected by centrifugation at 75,000×g for 20 minutes. Supernatant containing the cytoplasmic fraction was used for evaluation of PDE10A2 activity. The fluorescence polarization assay for cyclic nucleotide phosphodiesterases was performed using an IMAP® FP kit supplied by Molecular Devices, Sunnyvale, Calif. (product # R8139). IMAP® technology has been applied previously to phosphodiesterase assays (Huang, W., et al., J. Biomol Screen, 2002, 7: 215). Assays were performed at room temperature in 384-well microtiter plates with an incubation volume of 20.2 μL. Solutions of test compounds were prepared in DMSO and serially diluted with DMSO to yield 8 μL of each of 10 solutions differing by 3-fold in concentration, at 32 serial dilutions per plate. 100% inhibition is determined using a known PDE10 inhibitor, which can be any compound that is present at 5,000 times its Ki value in the assay described as follows, such as papaverine (see Siuciak, et al. Neuropharmacology (2006) 51:386-396; Becker, et al. Behav Brain Res (2008) 186(2):155-60; Threlfell, et al., J Pharmacol Exp Ther (2009) 328(3):785-795), 2-{4-[pyridin-4-yl-1-(2,2,2-trifluoroethyl)-1H-pyrazol-3-yl]phenoxymethyl}quinoline succinic acid or 2-[4-(1-methyl-4-pyridin-4-yl-1H-pyrazol-3-yl)-phenoxymethyl]quinoline succinic acid (see Schmidt, et al. J Pharmacol Exp Ther (2008) 325:681-690; Threlfell, et al., J Pharmacol Exp Ther (2009) 328(3): 785-795). 0% of inhibition is determined by using DMSO (1% final concentrations). A Labcyte Echo 555 (Labcyte, Sunnyvale, Calif.) is used to dispense 200 nL from each well of the titration plate to the 384 well assay plate. A solution of enzyme ( 1/1600 dilution from aliquots; sufficient to produce 20% substrate conversion) and a separate solution of FAM-labeled cAMP PDE from Molecular Devices (product # R7506), at a final concentration of 50 nM are made in the assay buffer (10 mM Tris HCl, pH 7.2, 10 mM MgCl2, 0.05% NaN3 0.01% Tween-20, and 1 mM DTT). The enzyme and the substrate are then added to the assay plates in two consecutive additions of 10 μL, and then shaken to mix. The reaction is allowed to proceed at room temperature for 30 minutes. A binding solution is then made from the kit components, comprised of 80% Solution A, 20% Solution B and binding reagent at a volume of 1/600 the total binding solution. […]
On the technique in general: In fluorescence polarisation assays a small probe gives low polarisation when free and higher when bound to something large.
Take `COC(=O)NCCNc1nc(-c2cccnc2)nc2c1CN(C(=O)Nc1ccccc1)CC2` [Compound 1-5, methyl-(2-{[6-(anilinocarbonyl)-2-pyridin-3-yl-5,6,7,8-tetrahydropyrido[4,3-d]pyrimidin-4-yl]amino}ethyl)carbamate]: the Ki worked out at 0.0953 µM.

Turning to `CC(C)CC(=O)N1CCc2nc(-c3cncc(-c4cncnc4)c3)nc(N(C)Cc3ccccc3)c2C1` [Compound 1-7, 1-{4-[benzyl(methyl)amino]-2-[5-(pyrimidin-5-yl)pyridin-3-yl[-7,8-dihydropyrido]4,3-d]pyrimidin-6(5H)-yl}-3-methylbutan-1-one], the Ki is 0.063 µM. `O=C(Nc1ccccc1)N1CCc2nc(-c3cccnc3)nc(NCc3c[nH]c(-c4ccccc4)n3)c2C1` [Compound 1-9, N-phenyl-4-{[(2-phenyl-1H-imidazol-4-yl)methyl]amino}-2-(pyridin-3-yl)-7,8-dihydropyrido[4,3-d]pyrimidine-6(5H)-carboxamide]: the Ki amounted to 0.00219 µM. The result for `CC(C)CC(=O)N1CCc2nc(-c3cncc(-c4cn[nH]c4)c3)nc(N(C)Cc3ccccc3)c2C1` [Compound 1-8, 1-{4-[benzyl(methyl)amino]-2-[5-(1H-pyrazol-4-yl)pyridin-3-yl]-7,8-dihydropyrido[4,3-d]pyrimidin-6(5H)-yl}-3-methylbutan-1-one] reads 0.015 µM; that for `O=C(Nc1ccccc1)N1CCc2nc(-c3ccncc3)nc(NCc3ccccn3)c2C1` [Compound 1-2, N-phenyl-2-pyridin-4-yl-4-[(pyridin-2-ylmethyl)amino]-7,8-dihydropyrido[4,3-d]pyrimidine-6(5H)-carboxamide], 0.192 µM; that for `O=C(Nc1ccccc1)N1CCc2nc(-c3ccncc3)nc(N3CCc4ccncc4C3)c2C1` [Compound 1-3, 4-(3,4-dihydro-2,7-naphthyridin-2(1H)-yl)-N-phenyl-2-pyridin-4-yl-7,8-dihydropyrido[4,3-d]pyrimidine-6(5H)-carboxamide], 0.162 µM. `COc1cccc(C2CN(c3nc(-c4cccnc4)nc4c3CN(C(=O)Nc3ccccc3)CC4)CCN2)c1` (stereo not drawn) [Compound 1-4, 4-[3-(3-methoxyphenyl)-piperazin-1-yl]-N-phenyl-2-pyridin-3-yl-7,8-dihydropyrido[4,3-d]pyrimidine-6(5H)-carboxamide]: the Ki is 0.153 µM. As for `O=C(Nc1ccccc1)N1CCc2nc(-c3ccc(F)nc3)nc(NCCc3ccccn3)c2C1` [Compound 1-6, 2-(6-fluoropyridin-3-yl)-N-phenyl-4-[(2-pyridin-2-ylethyl)amino]-7,8-dihydropyrido[4,3-d]pyrimidine-6(5H)-carboxamide], the Ki was determined as 0.114 µM. The result for `O=C(Nc1ccccc1)N1CCc2nc(-c3ccncc3)nc(NCCc3ccccn3)c2C1` [Compound 1-1, N-phenyl-2-pyridin-4-yl-4-[(2-pyridin-2-ylethyl)amino]-7,8-dihydropyrido[4,3-d]pyrimidine-6(5H)-carboxamide] reads 0.0479 µM.
